The record followed here is patent US9688760B2, “Anti-leukocyte adhesion for the mitigation of potential adverse events caused by CD3-specific binding domains” (AMGEN RESEARCH (MUNICH) GMBH, priority 2013, dated 2017).

Format in all cases: cell-based, human
The test system of experiment [1] is ICAM-1 and P-selectin on HUVEC. Nature of the experiment: Immunofluorescence staining of HUVEC after T cell-rolling. As to conditions: T cells pre-incubated with 10 ng/ml Blinatumomab vs untouched T cells. The procedure:
After rolling and adhesion of T cells on HBMEC or HUVEC under flow conditions, endothelial cells were fixed using 150 μl of 4% paraformaldehyde solution (#P-6148, Sigma-Aldrich) for 30 min at 4° C. μ-slides were rinsed with 150 μl of D-PBS and subjected to immunofluorescence staining. HBMEC were first blocked with 150 μl of avidin blocking reagent (#PHA-70871, reagent 1, Dianova) for 10 min at room temperature, washed with 150 μl of D-PBS followed by incubation with 150 μl of biotin blocking reagent (#PHA-70871, reagent 2, Dianova). All following staining procedures were performed in 150 μl of D-PBS with 5% FBS at room temperature in the dark, and washing steps were done in 150 μl of D-PBS. μ-slides were incubated with 5 μg/ml polyclonal rabbit anti-human VCAM-1 (#106777, abcam) for 1 h. After washing, 20 μg/ml goat anti-rabbit IgG-DyLight350 was added for 1 h followed by washing and incubation with 15 μg/ml mouse anti-human P-selectin IgG1 (#BBA30, R&D Systems) for 2 h. After washing, goat anti-mouse IgG-Alexa488 (1:100) (#A10680, Invitrogen) was added for 1 h. […] VCAM-1 staining was monitored with a CFL EPI-FL Filter Block UV-2A (#MBE41200, Nikon), P-selectin staining with a CFL EPI-FL Filter Block GFP-B (#MBE44740, Nikon), and ICAM-1 staining with an EPI-FL Filter Block Cy3 (#MXU96213, Nikon). […]

The next experiment relates to HUVEC. The experiment in a line: In vitro flow chamber: T cell-rolling and adhesion on HUVEC, long-term conditions. As to conditions: 40 min. The procedure:
(§1) Human brain microvascular endothelial cells (HBMEC) (#1000, Sciencell Research Laboratories) or human umbilical vein endothelial cells (HUVEC) (#C-12200, Promocell) were used as endothelial cell-model. Cryopreserved HBMEC at passage 1 (>5×10^5 cells/ml) were first cultivated in fibronectin-coated Nunclon-treated 75 cm^2 cell culture flasks (#156499, Nunc) at 37° C. and 5% CO2 in a Heraeus Cytoperm 2 (Thermo Scientific) according to the manufacturer's instructions. Sub-cultivation of HBMEC was done with the Detach Kit (#C-41200, Promocell) consisting of HEPES-buffered balanced salt solution (#C-40000, Promocell), trypsin-EDTA solution (0.04%/0.03%) (#C-41000, Promocell) and trypsin neutralization solution (TNS, #C-41100, Promocell). Briefly, the medium was aspirated from the HBMEC-layer and cells were washed with 2 ml of HEPES-buffered balanced salt solution. Addition of 2 ml of trypsin-EDTA solution for 1-5 min at room temperature led to detachment of HBMEC from the flask bottom. Inactivation of trypsin-EDTA solution was performed by addition of 2 ml of trypsin neutralization solution to the cell suspension. Cells were centrifuged at 300 g for 4 min in a Heraeus Megafuge 40 (Thermo Scientific) and seeded at a cell density of 5×10^5 cells per gelatin-coated 75 cm^2 cell culture flask (#L7230, Biochrom). HBMEC for rolling and adhesion experiments were cultivated in RPMI 1640 medium (#FG1215, Biochrom) supplemented with Nu-Serum IV (10%) (#355505, BD Biosciences), dialyzed FBS (10%) (#SZ0115, Biochrom), MEM-vitamins (1%) (#K0373, Biochrom), L-glutamine (1%) (#K0283, Biochrom), sodium-pyruvate (1%) (#L0473, Biochrom), heparin (10 U/ml) (#L6510, Biochrom), and […] cell growth factor ECGS (30 μg/ml) (#02-102, Millipore). Cultivation of HUVEC was done in endothelial cell growth medium (#C-22010, Promocell) supplemented with dialyzed FBS (10%) (#SZ0115, Biochrom) using gelatin-coated 75 cm^2 cell culture flasks. Sub-cultivation of HUVEC was performed with the Detach Kit ([…], Promocell) and cells were seeded at a cell density of 4.0-7.5×10^5 cells per 75 cm^2 cell culture flask.
Isolation of human PBMC from blood was performed by modified density gradient centrifugation as described elsewhere. Briefly, 15-20 ml of freshly drawn heparinized blood was transferred in Biocoll (#L6115, Biochrom)-containing Leukosep tubes (#227290, Greiner bio-one) and centrifuged in a Hettich Rotanta 460 RS Type 5606 (Hettich Laborapparate) at 1066 g for 15 min. After removal of the plasma fraction the PBMC containing phase was transferred in a new tube and washed twice with FACS-buffer (D-PBS #L1820, 5% FBS #SO115, Biochrom). Erythrocyte lysis was performed with lysis buffer (8.29 g/l NH4Cl, 1.00 g/l KHCO3, 0.037 g/l EDTA) for 5 min at room temperature. […]

Another experiment deals with HBMEC. Nature of the experiment: In vitro flow chamber: T cell-rolling on HBMEC, long-term conditions. The procedure: as §1
Isolation of human PBMC from blood was performed by modified density gradient centrifugation as described elsewhere. Briefly, 15-20 ml of freshly drawn heparinized blood was transferred in Biocoll (#L6115, Biochrom)-containing Leukosep tubes (#227290, Greiner bio-one) and centrifuged in a Hettich Rotanta 460 RS Type 5606 (Hettich Laborapparate) at 1066 g for 15 min. After removal of the plasma fraction the PBMC containing phase was transferred in a new tube and washed twice with FACS-buffer (D-PBS #L1820, 5% FBS #SO115, Biochrom). Erythrocyte lysis was performed with lysis buffer (8.29 g/l NH4Cl, 1.00 g/l KHCO3, 0.037 g/l EDTA) for 5 min at room temperature. For subsequent purification of untouched T cells the human Pan T cell-isolation Kit II (#130-091-156, Miltenyi Biotec) was used according to the manufacturer's instructions.
The ibidi Pump System (#10902, ibidi) was used for cultivation of endothelial cells under flow conditions as well as for performing adhesion and rolling assays of human T cells on endothelial cells. The system consists of the ibidi Pump (#10905, ibidi) and the ibidi Fluidic Unit (#10903, ibidi) which work together to generate a unidirectional flow of medium in an attached slide with a defined channel height. The system is controlled by the ibidi Pump Control software (#10908, notebook+software, ibidi). For cultivation of HBMEC or HUVEC under flow conditions, HBMEC or HUVEC were seeded at a cell density of 2.5×10^6 cells/ml into μ-slide I^0.4 Luer Collagen IV (#80172, ibidi) or μ-slide I^0.4 Luer ibiTreat (#80176, ibidi), respectively according to the manufacturer's instructions and cultivated with a perfusion set “yellow/green” (#10964, ibidi) for 48 h under wall shear stress of 5 or 10 dyn/cm^2, respectively. […]

As for “Blinatumomab: recombinant CD19×CD3 bispecific scFv antibody consisting of four immunoglobulin variable domains assembled into a single polypeptide chain”, the “surface expression of adhesion molecules on HUVEC” value in experiment [1] is “increased surface expression of adhesion molecules ICAM-1 and P-selectin”. In the experiment with HUVEC (+AMG 103 10 ng/ml vs T cells alone, long-term), the “increase of number of adhering T cells” value is 2.1 fold. Moreover, the “mean T cell-rolling velocity±SD” value is given as 127±41 μm/sec in the experiment on HUVEC (non-stimulated HUVEC (minocycline experiment), +AMG 103 10 ng/ml, control −AMG 103 169); 209±40 μm/sec in the experiment with HBMEC (10 ng/ml Blinatumomab, 45 min after addition, long-term, control −AMG 103 323±78); 281±96 μm/sec with HBMEC (histamine-stimulated HBMEC, +AMG 103 10 ng/ml, 45 min, control −AMG 103 430±92); 263±66 μm/sec with HBMEC (non-stimulated HBMEC (PPS experiment), +AMG 103 10 ng/ml, 40 min, control −AMG 103 399±153); 214 μm/sec in the experiment with HBMEC (non-stimulated HBMEC (anti-CD11a experiment), +AMG 103 10 ng/ml, 10 min, control −AMG 103 304±40); 428±89 μm/sec with HBMEC (non-stimulated HBMEC (anti-CD162 experiment), +AMG 103 10 ng/ml, 45 min, control −AMG 103 539±149). In addition, the “mean T cell-rolling velocity±SD” value with HBMEC (non-stimulated HBMEC (anti-ICAM-1 experiment), +AMG 103 10 ng/ml, 30 min, control −AMG 103 407±90) was found to be 335 μm/sec; with HBMEC (non-stimulated HBMEC (anti-P-selectin experiment), +AMG 103 10 ng/ml, 40 min, control −AMG 103 449±90) it was 370±55 μm/sec; in the experiment on HBMEC (non-stimulated HBMEC (natalizumab experiment), +AMG 103 10 ng/ml, 40 min, control −AMG 103 482±149), 359±102 μm/sec; in the experiment with HBMEC (non-stimulated HBMEC (recombinant P-selectin experiment), +AMG 103 10 ng/ml, 45 min, control −AMG 103 386±77), 340±68 μm/sec. Further, in the experiment with HBMEC (10 ng/ml Blinatumomab, 0 min, long-term), the “T cell-rolling velocity immediately after addition” value is “no decrease of T cell-rolling velocity was detectable”.
